Assay [1] concerns the target ABCB1 (Homo sapiens, UniProt P08183). Nature of the assay: biochemical.
In assay [2] the target is T1, ABCG2 (Homo sapiens, UniProt Q9UNQ0).
T1 sequence (Q9UNQ0 1-655): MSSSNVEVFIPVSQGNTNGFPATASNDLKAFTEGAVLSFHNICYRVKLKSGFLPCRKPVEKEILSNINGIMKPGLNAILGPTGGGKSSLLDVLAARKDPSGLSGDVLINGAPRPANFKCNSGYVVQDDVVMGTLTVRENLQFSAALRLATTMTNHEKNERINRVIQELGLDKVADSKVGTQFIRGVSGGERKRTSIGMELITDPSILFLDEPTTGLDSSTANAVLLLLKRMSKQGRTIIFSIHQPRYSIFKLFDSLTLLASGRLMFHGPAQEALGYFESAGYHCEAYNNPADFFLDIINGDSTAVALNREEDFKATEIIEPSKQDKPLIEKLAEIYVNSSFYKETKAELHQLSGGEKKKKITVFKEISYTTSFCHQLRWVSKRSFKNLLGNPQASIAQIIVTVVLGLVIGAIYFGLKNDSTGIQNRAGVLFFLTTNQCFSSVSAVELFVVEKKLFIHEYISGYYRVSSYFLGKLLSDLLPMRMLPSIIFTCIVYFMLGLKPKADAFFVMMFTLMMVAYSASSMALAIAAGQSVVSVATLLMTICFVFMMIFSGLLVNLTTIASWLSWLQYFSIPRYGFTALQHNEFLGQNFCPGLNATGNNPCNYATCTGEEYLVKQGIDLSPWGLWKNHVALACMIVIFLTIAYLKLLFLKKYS
Nature of the assay: biochemical.

Chain of ABCB1 (P08183 whole entry): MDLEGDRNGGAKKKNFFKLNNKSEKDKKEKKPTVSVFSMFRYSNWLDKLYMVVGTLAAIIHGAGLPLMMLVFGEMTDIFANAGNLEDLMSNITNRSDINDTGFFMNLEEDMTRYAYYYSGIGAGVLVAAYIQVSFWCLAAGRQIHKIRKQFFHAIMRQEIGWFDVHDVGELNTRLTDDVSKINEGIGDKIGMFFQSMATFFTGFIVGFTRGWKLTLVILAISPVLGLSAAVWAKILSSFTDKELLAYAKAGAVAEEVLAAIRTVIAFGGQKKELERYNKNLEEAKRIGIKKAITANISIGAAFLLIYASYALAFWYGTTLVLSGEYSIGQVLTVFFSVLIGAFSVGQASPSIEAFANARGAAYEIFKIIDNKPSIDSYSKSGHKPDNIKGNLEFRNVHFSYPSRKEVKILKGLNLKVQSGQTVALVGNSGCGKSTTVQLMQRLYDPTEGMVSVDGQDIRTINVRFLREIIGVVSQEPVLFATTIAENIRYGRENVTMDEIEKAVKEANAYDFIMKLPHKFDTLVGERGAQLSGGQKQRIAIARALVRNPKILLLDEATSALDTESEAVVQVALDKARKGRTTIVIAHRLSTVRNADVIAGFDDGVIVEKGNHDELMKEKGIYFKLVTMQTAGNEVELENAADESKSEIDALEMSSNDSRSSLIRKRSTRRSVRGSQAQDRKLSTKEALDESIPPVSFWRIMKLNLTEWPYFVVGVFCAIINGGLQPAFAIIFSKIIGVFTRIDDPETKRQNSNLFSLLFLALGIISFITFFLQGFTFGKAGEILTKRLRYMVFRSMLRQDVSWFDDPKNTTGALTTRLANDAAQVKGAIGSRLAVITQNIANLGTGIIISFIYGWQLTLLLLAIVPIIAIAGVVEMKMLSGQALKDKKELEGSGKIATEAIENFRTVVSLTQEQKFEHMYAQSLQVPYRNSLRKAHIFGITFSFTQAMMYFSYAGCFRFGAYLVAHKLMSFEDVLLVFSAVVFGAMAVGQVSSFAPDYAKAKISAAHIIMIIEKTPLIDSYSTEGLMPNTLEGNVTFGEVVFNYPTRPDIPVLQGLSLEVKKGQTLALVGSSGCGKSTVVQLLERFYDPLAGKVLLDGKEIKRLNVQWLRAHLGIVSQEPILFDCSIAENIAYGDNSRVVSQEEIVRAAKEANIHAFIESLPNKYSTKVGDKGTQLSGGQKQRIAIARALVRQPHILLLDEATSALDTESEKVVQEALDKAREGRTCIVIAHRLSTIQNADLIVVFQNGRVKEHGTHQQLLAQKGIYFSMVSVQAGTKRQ

Regarding `CC(C)(C)c1cc(NC(=O)Nc2ccc(-c3cn4c(n3)sc3cc(OCCN5CCOCC5)ccc34)cc2)no1` [quizartinib], the IC50 in assay [1] was determined as 3300 nM; in assay [2] it was 70 nM.

The IC50 is the concentration that inhibits the measured activity by half. A lower IC50 goes with higher potency.

The values above are taken from PMC3743865, “The FLT3 Inhibitor Quizartinib Inhibits ABCG2 at Pharmacologically Relevant Concentrations, with Implications for Both Chemosensitization and Adverse Drug Interactions” (PLoS ONE, 2013).
